Earlier results, collected in PMC7544826 (Communications Biology, 2020).

Test system: Notum
Design: method as in PMID 31876313
Conditions: read-out: IC50, Notum inhibition (reported potency); cited from earlier work

Which IC50 does the source give for `COc1ccc2[nH]cc(CCNC(C)=O)c2c1` [melatonin] here?
Its IC50 is 75 µM.
